target: T1, human PAH with the R408W mutation (Homo sapiens, UniProt P00439, R408W); test: Cell Based Phenylalanine Flux Assay; settings: A375 cells expressing human R408W PAH; 24 hrs compound incubation; 13C-Tyrosine by LC-MS; average where tested multiple times; read-out: AC50;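 also: Ten-point dose curve from 2-fold serial dilutions, run in duplicate at 0.5% DMSO final, tracer step used 20 µM sepiapterin and 800 µM labeled phenylalanine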
T1 construct: expressed in transfected cells
T1 sequence (P00439 1-452 R408W): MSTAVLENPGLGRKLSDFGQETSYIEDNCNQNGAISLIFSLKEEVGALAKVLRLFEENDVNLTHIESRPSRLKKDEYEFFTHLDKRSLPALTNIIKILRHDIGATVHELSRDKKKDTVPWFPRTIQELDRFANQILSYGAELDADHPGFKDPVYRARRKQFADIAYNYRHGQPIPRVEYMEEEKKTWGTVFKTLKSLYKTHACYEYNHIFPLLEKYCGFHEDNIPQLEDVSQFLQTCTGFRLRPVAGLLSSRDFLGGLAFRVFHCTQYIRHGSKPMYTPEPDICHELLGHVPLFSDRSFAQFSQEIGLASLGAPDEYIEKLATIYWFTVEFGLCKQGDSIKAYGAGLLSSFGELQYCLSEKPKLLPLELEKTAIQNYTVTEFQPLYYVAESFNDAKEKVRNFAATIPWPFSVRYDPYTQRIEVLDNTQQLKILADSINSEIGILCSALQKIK

| AC50 | SMILES |
| --- | --- |
| > 5 µM | Cc1ncccc1-c1nnc(C(=O)N2CCc3[nH]cnc3[C@@H]2c2cc3ccccn3n2)o1 [Example 1365, (R)-(5-(2-methylpyridin-3-yl)-1,3,4-oxadiazol-2-yl)(4-(pyrazolo[1,5-a]pyridin-2-yl)-6,7-dihydro-1H-imidazo[4,5-c]pyridin-5(4H)-yl)methanone] |
| 1 to 5 µM | Cc1c(-c2nnc(C(=O)N3CCc4[nH]cnc4[C@@H]3c3cc4cccc(C(F)F)n4n3)o2)cnn1C [Example 1367, (R)-(4-(7-(difluoromethyl)pyrazolo[1,5-a]pyridin-2-yl)-6,7-dihydro-1H-imidazo[4,5-c]pyridin-5(4H)-yl)(5-(1,5-dimethyl-1H-pyrazol-4-yl)-1,3,4-oxadiazol-2-yl)methanone] |
| < 0.5 µM | Cn1nc(C(F)F)cc1C(=O)N1CCc2[nH]cnc2[C@H]1c1cc2c(Cl)cccn2n1 [Example 1368, (S)-(4-(4-chloropyrazolo [1,5-a]pyridin-2-yl)-6,7-dihydro-1H-imidazo[4,5-c]pyridin-5(4H)-yl)(3-(difluoromethyl)-1-methyl-1H-pyrazol-5-yl)methanone] |
| < 0.5 µM | Cn1nc(C(F)F)cc1C(=O)N1CCc2[nH]cnc2[C@H]1c1cc2c(C(F)F)cccn2n1 [Example 1372, (S)-(3-(difluoromethyl)-1-methyl-1H-pyrazol-5-yl)(4-(4-(difluoromethyl)pyrazolo [1,5-a]pyridin-2-yl)-6,7-dihydro-1H-imidazo[4,5-c]pyridin-5(4H)-yl)methanone] |
| 1 to 5 µM | Cn1nc(C(F)F)cc1C(=O)N1CCc2[nH]cnc2[C@@H]1c1cc2c(C(F)F)cccn2n1 [Example 1373, (R)-(3-(difluoromethyl)-1-methyl-1H-pyrazol-5-yl)(4-(4-(difluoromethyl)pyrazolo [1,5-a]pyridin-2-yl)-6,7-dihydro-1H-imidazo[4,5-c]pyridin-5(4H)-yl)methanone] |
| > 5 µM | O=C(c1nnc(-c2ccn(C(F)F)n2)o1)N1CCc2[nH]cnc2[C@@H]1c1cc2c(C(F)F)cccn2n1 [Example 1376, (R)-(5-(1-(difluoromethyl)-1H-pyrazol-3-yl)-1,3,4-oxadiazol-2-yl)(4-(4-(difluoromethyl)pyrazolo[1,5-a]pyridin-2-yl)-6,7-dihydro-1H-imidazo[4,5-c]pyridin-5(4H)-yl)methanone] |
| < 0.5 µM | Cc1cccc(-c2nnc(C(=O)N3CCc4[nH]cnc4[C@H]3c3cc4ccccn4n3)o2)n1 [Example 1382, (S)-(5-(6-methylpyridin-2-yl)-1,3,4-oxadiazol-2-yl)(4-(pyrazolo[1,5-a]pyridin-2-yl)-6,7-dihydro-1H-imidazo[4,5-c]pyridin-5(4H)-yl)methanone] |
| 0.5 to 1 µM | Cn1nc(C(F)F)cc1C(=O)N1CCc2[nH]cnc2[C@H]1c1cc2cccc(C(F)(F)F)n2n1 [Example 1386, (S)-(3-(difluoromethyl)-1-methyl-1H-pyrazol-5-yl)(4-(7-(trifluoromethyl)pyrazolo [1,5-a]pyridin-2-yl)-6,7-dihydro-1H-imidazo[4,5-c]pyridin-5(4H)-yl)methanone] |

same assay, conditions: A375 cells expressing human R408W PAH; 24 hrs with compound, then sepiapterin and 13C9,15N-Phenylalanine for 4 hours; 13C-Tyrosine by LC-MS; average where tested multiple times; read-out: AC50

| AC50 | SMILES |
| --- | --- |
| 0.5 to 1 µM | CC(C)(C)c1nnc(C(=O)N2CCc3[nH]cnc3[C@H]2c2cc3cccc(C(F)F)n3n2)o1 [Example 1419, (S)-(5-(tert-butyl)-1,3,4-oxadiazol-2-yl)(4-(7-(difluoromethyl)pyrazolo [1,5-a]pyridin-2-yl)-6,7-dihydro-1H-imidazo[4,5-c]pyridin-5(4H)-yl)methanone] |
| > 5 µM | O=C(c1nnc(-c2ccccn2)o1)N1CCc2[nH]cnc2[C@@H]1c1cc2cccc(C(F)F)n2n1 [Example 1420, (R)-(4-(7-(difluoromethyl)pyrazolo[1,5-a]pyridin-2-yl)-6,7-dihydro-1H-imidazo [4,5-c]pyridin-5(4H)-yl)(5-(pyridin-2-yl)-1,3,4-oxadiazol-2-yl)methanone] |
| > 5 µM | O=C(c1nnc(-c2cccnc2)o1)N1CCc2[nH]cnc2[C@@H]1c1cc2c(C(F)F)cccn2n1 [Example 1423, (R)-(4-(4-(difluoromethyl)pyrazolo[1,5-a]pyridin-2-yl)-6,7-dihydro-1H-imidazo [4,5-c]pyridin-5(4H)-yl)(5-(pyridin-3-yl)-1,3,4-oxadiazol-2-yl)methanone] |
| < 0.5 µM | COc1ccc(-c2nnc(C(=O)N3CCc4[nH]cnc4[C@H]3c3cc4c(C(F)F)cccn4n3)o2)nc1 [Example 1424, (S)-(4-(4-(difluoromethyl)pyrazolo[1,5-a]pyridin-2-yl)-6,7-dihydro-1H-imidazo [4,5-c]pyridin-5(4H)-yl)(5-(5-methoxypyridin-2-yl)-1,3,4-oxadiazol-2-yl)methanone] |
| > 5 µM | Cc1cccc(-c2nnc(C(=O)N3CCc4[nH]cnc4[C@@H]3c3cc4c(C)cccn4n3)o2)n1 [Example 1428, (R)-(4-(4-methylpyrazolo [1,5-a]pyridin-2-yl)-6,7-dihydro-1H-imidazo[4,5-c]pyridin-5(4H)-yl)(5-(6-methylpyridin-2-yl)-1,3,4-oxadiazol-2-yl)methanone] |
| < 0.5 µM | Cc1cccc(-c2nnc(C(=O)N3CCc4[nH]cnc4[C@H]3c3cc4c(C)cccn4n3)o2)n1 [Example 1429, (S)-(4-(4-methylpyrazolo [1,5-a]pyridin-2-yl)-6,7-dihydro-1H-imidazo[4,5-c]pyridin-5(4H)-yl)(5-(6-methylpyridin-2-yl)-1,3,4-oxadiazol-2-yl)methanone] |

Second part, the compound before the results:

| SMILES | AC50 |
| --- | --- |
| Cc1cccc(-c2nnc(C(=O)N3CCc4[nH]cnc4[C@H]3c3cc4cccc(C)n4n3)o2)n1 [Example 1398, (S)-(4-(7-methylpyrazolo [1,5-a]pyridin-2-yl)-6,7-dihydro-1H-imidazo[4,5-c]pyridin-5(4H)-yl)(5-(6-methylpyridin-2-yl)-1,3,4-oxadiazol-2-yl)methanone] | < 0.5 µM |
| Cn1cc(-c2nnc(C(=O)N3CCc4[nH]cnc4[C@H]3c3cc4cccc(C(F)F)n4n3)o2)cn1 [Example 1406, (S)-(4-(7-(difluoromethyl)pyrazolo[1,5-a]pyridin-2-yl)-6,7-dihydro-1H-imidazo [4,5-c]pyridin-5(4H)-yl)(5-(1-methyl-1H-pyrazol-4-yl)-1,3,4-oxadiazol-2-yl)methanone] | < 0.5 µM |
| O=C(c1nnc(-c2cnccn2)o1)N1CCc2[nH]cnc2[C@H]1c1cc2c(C(F)F)cccn2n1 [Example 1414, (S)-(4-(4-(difluoromethyl)pyrazolo[1,5-a]pyridin-2-yl)-6,7-dihydro-1H-imidazo [4,5-c]pyridin-5(4H)-yl)(5-(pyrazin-2-yl)-1,3,4-oxadiazol-2-yl)methanone] | < 0.5 µM |
| O=C(c1nnc(-c2cnccn2)o1)N1CCc2[nH]cnc2[C@@H]1c1cc2c(C(F)F)cccn2n1 [Example 1415, (R)-(4-(4-(difluoromethyl)pyrazolo[1,5-a]pyridin-2-yl)-6,7-dihydro-1H-imidazo [4,5-c]pyridin-5(4H)-yl)(5-(pyrazin-2-yl)-1,3,4-oxadiazol-2-yl)methanone] | 1 to 5 µM |
| O=C(c1cnn2cc(-c3ccccn3)ccc12)N1CCc2[nH]cnc2[C@H]1c1cc2ccccn2n1 [Example 1416, (S)-(4-(pyrazolo[1,5-a]pyridin-2-yl)-6,7-dihydro-1H-imidazo[4,5-c]pyridin-5(4H)-yl)(6-(pyridin-2-yl)pyrazolo[1,5-a]pyridin-3-yl)methanone] | < 0.5 µM |
